PMC9266351, “Degradation and Detoxification of Chlorophenols with Different Structure by LAC-4 Laccase Purified from White-Rot Fungus Ganoderma lucidum” (International Journal of Environmental Research and Public …, 2022)

Tests used:
Format in all cases: biochemical, Ganoderma lucidum
LAC-4 laccase [1] = system: T1, LAC-4 laccase; experiment: spectrophotometric oxidation at […] nm; non-linear Michaelis-Menten fit; conditions: 50 mM acetate pH 5.0, 30 °C; 0.1-1.0 mM substrate, 0.01 U/mL enzyme
T1 construct: native secreted enzyme purified from culture filtrate (GYP medium, CuSO4-induced; ammonium sulfate, anion exchange, hydrophobic chromatography); about 56 kDa by SDS-PAGE

LAC-4 laccase [2] = system: T1, LAC-4 laccase; experiment: as above; conditions: 50 mM acetate pH 5.0, 30 °C; 0.01-0.06 mM substrate (all below Km), 0.01 U/mL enzyme
LAC-4 laccase [3] = system: T1, LAC-4 laccase; experiment: degradation over […] min; Lineweaver-Burk plot; conditions: 50 mM acetate pH 5.0, 30 °C; 0.1-8 mM substrate, 1 U/mL enzyme
LAC-4 laccase [4] = system: T1, LAC-4 laccase; experiment: degradation over […] min; Lineweaver-Burk plot; conditions: 50 mM acetate pH 5.0, 30 °C; 0.1-8 mM substrate, 1 U/mL enzyme; remark: listed apart in the source
LAC-4 laccase [5] = system: T1, LAC-4 laccase; experiment: spectrophotometric oxidation at […] nm; non-linear Michaelis-Menten fit; conditions: 50 mM acetate pH 5.0, 30 °C; 0.01-0.1 mM substrate, 0.01 U/mL enzyme

In the case of `COc1ccccc1O` [guaiacol], the Km (LAC-4 laccase [1]) was 97 µM.

In the case of `COc1cccc(OC)c1O` [2,6-DMP], the Km (LAC-4 laccase [2]) was 803 µM.

`Oc1c(Cl)ccc(Cl)c1Cl` [2,3,6-TCP] showed a Km (LAC-4 laccase [3]) of 4880 µM.

In the case of `Oc1c(Cl)cccc1Cl` [2,6-DCP], the Km (LAC-4 laccase [4]) was 3640 µM.

`CCn1c(=NN=c2sc3cc(S(=O)(=O)O)ccc3n2CC)sc2cc(S(=O)(=O)O)ccc21` [ABTS] was tested, and the Km (LAC-4 laccase [5]) was 75 µM.
